Assay results reported in patent publication US5866118A, “Polypeptides having 3g6-phytase activity from thermomyces and nucleic acids encoding same” (Novo Nordisk Biotech, Inc., priority 1997, dated 1999).

Tests used:
[1] = test system: Thermomyces lanuginosus CBS 586.94 phytase, purified recombinant, SEQ ID NO:2; test: Steady-state kinetics by substrate titration, assay of inorganic phosphate liberated from corn phytic acid; format: biochemical
Description: (§1) All characterizations were performed with the purified recombinant Thermomyces lanuginosus CBS 586.94 phytase described in Example 11. Comparisons were also made where noted with a standard of an Aspergillus niger (ficuum) phytase obtained from Novo Nordisk A/S, Bagsverd, Denmark.
(§2) Enzyme kinetics studies. Enzyme kinetics studies were performed on the Thermomyces phytase and the Aspergillus niger phytase. The studies were accomplished by assay of inorganic phosphate liberated from corn phytic acid (Sigma Chemical Co., St. Louis, Mo.). Standard enzyme reactions were carried out for 30 minutes at 37° C. and pH 5.5 in 0.5% w/w phytic acid. The reaction was quenched by the addition of an equal volume of 15% w/w trichloroacetic acid. After cooling, 100 μl of the resulting mixture was diluted into 1.0 ml of glass distilled water. The sample was incubated at 50° C. for 5 minutes. Color reagent (1.0 ml) was added and the 50° C. incubation was continued for 15 minutes. The absorbance of a 200 μl aliquot was measured at 690 nm with a Molecular Devices Thermomax Microplate Reader. The color reagent is composed of 6N sulfuric acid: water: 2.5% (w/v) ammonium heptamolybdate, tetrahydrate: 10% ascorbate (aqueous) in a ratio of 1:2:1:1 and prepared fresh on a daily basis. Quantitation was based on a standard curve generated with a 10 mM sodium monobasic phosphate standard. One unit U) is defined as a μmole of inorganic phosphate released per minute at 37° C. and pH 5.5.
Steady-state kinetics measurements were made by substrate titration. Phytate concentrations were 2.16, 1.08, 0.541, 0.216, 0.108, and 0.0758 mM for the purposes of Km determination. Phytate concentrations of 1.08, 0.541, 0.216 and 0.108 mM in the presence or absence of 1 mM sodium monobasic phosphate were used for the purpose of evaluating product inhibition.

Aspergillus phytase = target: T1, Aspergillus phytase (Aspergillus niger, UniProt P34752); conditions: Ullah, 1988, Preparative Biochemistry 18: 443-458; read-out: Ki (phosphate, competitive inhibitor); cited from earlier work
T1 sequence (P34752 24-467): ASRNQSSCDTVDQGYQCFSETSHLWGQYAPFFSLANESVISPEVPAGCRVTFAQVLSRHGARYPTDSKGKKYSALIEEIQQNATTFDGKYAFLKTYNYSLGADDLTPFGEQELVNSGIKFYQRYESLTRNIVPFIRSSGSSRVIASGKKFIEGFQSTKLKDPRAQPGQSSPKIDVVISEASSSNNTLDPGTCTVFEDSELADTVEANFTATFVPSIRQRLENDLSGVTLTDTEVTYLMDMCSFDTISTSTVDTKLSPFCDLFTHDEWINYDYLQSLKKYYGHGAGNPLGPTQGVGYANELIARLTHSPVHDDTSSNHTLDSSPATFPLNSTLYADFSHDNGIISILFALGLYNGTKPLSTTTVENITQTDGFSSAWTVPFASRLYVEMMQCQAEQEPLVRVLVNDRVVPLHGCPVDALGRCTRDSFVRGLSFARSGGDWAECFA

[2] = substrate: O=P(O)(O)O[C@H]1[C@H](OP(=O)(O)O)[C@@H](OP(=O)(O)O)[C@H](OP(=O)(O)O)[C@@H](OP(=O)(O)O)[C@H]1OP(=O)(O)O; test: Steady-state kinetics by substrate titration, assay of inorganic phosphate liberated from corn phytic acid; format: biochemical, Aspergillus niger (ficuum); conditions: other: 37° C., pH 5.5, phytate 0.0758-2.16 mM
Description: as §1
as §2, with “One unit U) is defined as a μmole of inorganic phosphate released per minute at 37° C. and pH 5.5.” left out

`O=P(O)(O)O[C@H]1[C@H](OP(=O)(O)O)[C@@H](OP(=O)(O)O)[C@H](OP(=O)(O)O)[C@@H](OP(=O)(O)O)[C@H]1OP(=O)(O)O` [phytate, myo-inositol hexakisphosphate] gave a Km ([1]; 37° C., pH 5.5, phytate 0.0758-2.16 mM, read-out: apparent Km with respect to phytate) of ~110 µM.

In the case of `O=P([O-])(O)O.[Na+]` [phosphate, sodium monobasic phosphate], the Ki (Aspergillus phytase) is listed as 1900 µM, the “product inhibition with 1 mM phosphate present” value ([1]; 1 mM sodium monobasic phosphate, phytate 0.108-1.08 mM) is listed as “failed to reveal any type of inhibition” and the Ki ([1]; estimated, phytate 0.108-1.08 mM with or without 1 mM sodium monobasic phosphate) is listed as > 3000 µM.

B1: Aspergillus niger (ficuum) phytase, standard obtained from Novo Nordisk A/S (Aspergillus niger) (protein)
chain: ASRNQSSCDTVDQGYQCFSETSHLWGQYAPFFSLANESVISPEVPAGCRVTFAQVLSRHGARYPTDSKGKKYSALIEEIQQNATTFDGKYAFLKTYNYSLGADDLTPFGEQELVNSGIKFYQRYESLTRNIVPFIRSSGSSRVIASGKKFIEGFQSTKLKDPRAQPGQSSPKIDVVISEASSSNNTLDPGTCTVFEDSELADTVEANFTATFVPSIRQRLENDLSGVTLTDTEVTYLMDMCSFDTISTSTVDTKLSPFCDLFTHDEWINYDYLQSLKKYYGHGAGNPLGPTQGVGYANELIARLTHSPVHDDTSSNHTLDSSPATFPLNSTLYADFSHDNGIISILFALGLYNGTKPLSTTTVENITQTDGFSSAWTVPFASRLYVEMMQCQAEQEPLVRVLVNDRVVPLHGCPVDALGRCTRDSFVRGLSFARSGGDWAECFA
notes: purchased Novo Nordisk A/S, Bagsverd, Denmark
With B1 the Km [2] was 200 µM.
